# Columns and labels:
# STING, pTBK1, pIRF3 = experiment: STING, pTBK1 and pIRF3 western blot in CT-26 cells; type: cell-based, mouse
# [1] = test system: HARA (human lung squamous cell carcinoma) cells; experiment: Cell proliferation assay (CellTiter-Glo), HARA; type: cell-based; details: Homo sapiens, 144 h; 6 days, CellTiter-Glo; read-out: HARA GI50
# [2] = test system: CT26 (mouse colon adenocarcinoma) cells; experiment: Cell proliferation assay (CellTiter-Glo), CT26; type: cell-based; details: Mus musculus, CT26, 144 h, 6 days
# PARP2 = PARP2 (Homo sapiens (Human), UniProt Q9UGN5); experiment: PARP2 biochemical assay; details: read-out: PARP2 IC50
# Chain of PARP2 (Q9UGN5 whole entry): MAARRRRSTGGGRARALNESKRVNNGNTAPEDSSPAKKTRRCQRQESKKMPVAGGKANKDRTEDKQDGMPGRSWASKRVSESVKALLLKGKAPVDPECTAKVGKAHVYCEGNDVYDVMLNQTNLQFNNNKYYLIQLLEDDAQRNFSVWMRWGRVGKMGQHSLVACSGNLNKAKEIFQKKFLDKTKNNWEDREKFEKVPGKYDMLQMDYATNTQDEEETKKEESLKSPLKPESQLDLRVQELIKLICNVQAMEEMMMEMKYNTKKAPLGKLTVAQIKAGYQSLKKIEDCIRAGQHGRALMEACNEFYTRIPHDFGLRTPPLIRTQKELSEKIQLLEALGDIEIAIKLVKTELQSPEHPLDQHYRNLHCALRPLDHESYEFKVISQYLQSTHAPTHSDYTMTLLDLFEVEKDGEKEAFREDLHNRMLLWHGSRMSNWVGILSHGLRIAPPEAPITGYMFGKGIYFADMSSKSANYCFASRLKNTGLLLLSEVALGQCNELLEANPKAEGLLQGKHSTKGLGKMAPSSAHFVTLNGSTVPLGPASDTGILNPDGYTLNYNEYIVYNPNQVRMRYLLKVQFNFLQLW
# PARP1 = PARP1 (Homo sapiens (Human), UniProt P09874); experiment: PARP1 biochemical assay
# Chain of PARP1 (P09874 whole entry, species assumed): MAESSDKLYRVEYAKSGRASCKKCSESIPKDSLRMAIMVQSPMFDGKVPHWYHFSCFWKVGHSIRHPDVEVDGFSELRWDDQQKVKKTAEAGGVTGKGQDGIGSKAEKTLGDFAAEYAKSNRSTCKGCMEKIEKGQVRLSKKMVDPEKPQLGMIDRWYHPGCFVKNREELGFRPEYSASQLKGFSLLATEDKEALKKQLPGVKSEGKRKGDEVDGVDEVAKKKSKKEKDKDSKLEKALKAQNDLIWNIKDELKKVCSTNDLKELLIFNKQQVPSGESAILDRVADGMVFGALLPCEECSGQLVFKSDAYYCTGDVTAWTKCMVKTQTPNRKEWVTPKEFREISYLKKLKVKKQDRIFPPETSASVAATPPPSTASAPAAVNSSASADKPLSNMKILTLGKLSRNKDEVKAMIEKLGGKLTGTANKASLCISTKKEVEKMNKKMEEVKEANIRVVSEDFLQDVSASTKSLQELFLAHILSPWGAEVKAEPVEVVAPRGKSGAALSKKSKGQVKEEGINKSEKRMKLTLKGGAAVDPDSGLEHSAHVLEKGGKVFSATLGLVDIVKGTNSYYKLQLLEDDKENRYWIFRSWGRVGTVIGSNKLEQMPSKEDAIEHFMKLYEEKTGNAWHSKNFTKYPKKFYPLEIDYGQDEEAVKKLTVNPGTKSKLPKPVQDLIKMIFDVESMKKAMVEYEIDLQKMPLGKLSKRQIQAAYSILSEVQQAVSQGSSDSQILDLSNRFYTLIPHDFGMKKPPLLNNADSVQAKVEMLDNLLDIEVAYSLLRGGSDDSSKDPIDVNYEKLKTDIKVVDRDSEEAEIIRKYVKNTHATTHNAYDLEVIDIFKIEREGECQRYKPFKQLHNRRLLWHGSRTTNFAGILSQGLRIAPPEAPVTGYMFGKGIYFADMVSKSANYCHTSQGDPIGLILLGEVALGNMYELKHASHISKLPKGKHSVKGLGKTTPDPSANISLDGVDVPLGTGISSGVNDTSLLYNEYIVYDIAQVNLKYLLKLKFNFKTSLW
# [3] = test system: NCI-H1373 (human lung adenocarcinoma) cells; experiment: Cell proliferation assay (CellTiter-Glo), NCI-H1373; type: cell-based; details: Homo sapiens, NCI-H1373, 144 h; 6 days, CellTiter-Glo; read-out: NCI-H1373 GI50
# His-GST-PARP7 = His-GST-PARP7 (Homo sapiens (Human), UniProt Q7Z3E1); experiment: PARP7 biochemical assay; details: read-out: PARP7 IC50
# Chain of His-GST-PARP7 (Q7Z3E1 whole entry): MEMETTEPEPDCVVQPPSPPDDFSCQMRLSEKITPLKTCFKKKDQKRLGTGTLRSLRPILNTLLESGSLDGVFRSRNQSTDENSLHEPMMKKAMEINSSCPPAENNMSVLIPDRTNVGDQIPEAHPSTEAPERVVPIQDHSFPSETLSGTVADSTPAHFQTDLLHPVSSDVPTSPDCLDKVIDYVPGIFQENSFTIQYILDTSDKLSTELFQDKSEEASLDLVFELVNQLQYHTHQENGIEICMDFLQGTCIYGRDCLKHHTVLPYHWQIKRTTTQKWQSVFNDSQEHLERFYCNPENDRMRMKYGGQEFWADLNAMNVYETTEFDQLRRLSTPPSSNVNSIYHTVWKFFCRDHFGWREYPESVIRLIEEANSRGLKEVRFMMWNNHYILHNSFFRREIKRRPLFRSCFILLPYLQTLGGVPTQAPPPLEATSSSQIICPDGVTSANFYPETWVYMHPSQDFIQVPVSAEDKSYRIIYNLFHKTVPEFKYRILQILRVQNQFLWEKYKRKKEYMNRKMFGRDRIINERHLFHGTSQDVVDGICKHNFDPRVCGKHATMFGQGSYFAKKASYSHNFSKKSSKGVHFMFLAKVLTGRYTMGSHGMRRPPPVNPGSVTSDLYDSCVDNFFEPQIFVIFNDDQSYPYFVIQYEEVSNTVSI
# secreted IFN-β = experiment: Interferon-β ELISA, CT-26 cells; type: cell-based, mouse
# Method: CT-26 cells were seeded into a 6-well plate. After 24 h, the growth media was replaced, and cells were treated with inhibitors. After treatment, growth media was harvested and assayed with PBL Verikine Mouse IFN-β ELISA kit following the manufacturer protocol.
# endogenous PARP7 = endogenous PARP7 (Mus musculus (Mouse), UniProt Q8C1B2); experiment: Endogenous PARP7 protein levels in CT-26 cells (western blot); type: cell-based
# Chain of endogenous PARP7 (Q8C1B2 whole entry): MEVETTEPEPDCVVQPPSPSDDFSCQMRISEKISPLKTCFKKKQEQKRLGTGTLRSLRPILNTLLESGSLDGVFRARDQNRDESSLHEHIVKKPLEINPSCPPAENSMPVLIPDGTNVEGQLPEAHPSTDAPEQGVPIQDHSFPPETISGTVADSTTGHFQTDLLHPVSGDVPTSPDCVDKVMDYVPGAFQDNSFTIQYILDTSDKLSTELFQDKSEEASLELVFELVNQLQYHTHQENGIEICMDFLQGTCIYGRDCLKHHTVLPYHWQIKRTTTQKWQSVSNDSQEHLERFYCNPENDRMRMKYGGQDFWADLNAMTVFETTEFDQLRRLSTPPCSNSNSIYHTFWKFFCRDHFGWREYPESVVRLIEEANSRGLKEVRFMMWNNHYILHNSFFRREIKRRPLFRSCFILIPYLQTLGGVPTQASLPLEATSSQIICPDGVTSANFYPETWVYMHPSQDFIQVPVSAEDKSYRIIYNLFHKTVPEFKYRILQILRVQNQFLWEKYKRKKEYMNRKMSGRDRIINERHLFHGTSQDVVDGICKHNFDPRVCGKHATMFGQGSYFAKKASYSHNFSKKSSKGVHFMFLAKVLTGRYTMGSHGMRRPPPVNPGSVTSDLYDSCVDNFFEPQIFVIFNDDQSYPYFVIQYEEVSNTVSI
# HiBiT-PARP7 = HiBiT-PARP7 (Mus musculus (Mouse), UniProt Q8C1B2); experiment: Nuclear PARP7 immunofluorescence in HiBiT-PARP7 knockin CT-26 cells; type: cell-based; details: HiBiT-PARP7 KI CT-26 cells, 300 nM, 18 h
# Chain of HiBiT-PARP7 (Q8C1B2 whole entry): as above
# GFP-PARP7 = GFP-PARP7 (Homo sapiens (Human), UniProt Q7Z3E1); experiment: Live cell imaging of GFP-PARP7 in HeLa cells; type: cell-based; details: HeLa cells overexpressing GFP-PARP7 and mRuby2-Nup90, 300 nM
# Chain of GFP-PARP7 (Q7Z3E1 whole entry): as the sequence (Q7Z3E1 whole entry) above
# PARP7 [4] = target: T1, PARP7 (Mus musculus (Mouse), UniProt Q8C1B2); experiment: PARP7 protein levels Western blot in CT-26 cells; type: cell-based
# Method: (§1) FIG. 4B provides of Western blots in FIG. 4A. Quantification was performed using BioRad ImageLab software. Curves were fit using four parameter nonlinear regression in GraphPad Prism. STAT1 and pSTAT1 levels were normalized to tubulin. Data was from 3 biological replicates. […] Treatment was as in FIG. 4A. Note: tubulin blot was the same as in FIG. 4A since samples were run on the same nitrocellulose membrane for western blot analysis. SE=short exposure; LE=long exposure. […] Treatment was as in FIG. 4A. Note: tubulin blot is the same as in FIG. 4A since samples were run on the same nitrocellulose membrane for western blot analysis. […] Quantification was performed using BioRad ImageLab software. Curves fitting was done using a four parameter nonlinear regression in GraphPad Prism. PARP7 levels were normalized to tubulin. Data was from 3 biological replicates. […] IFN-0 levels were determined by ELISA (PBL Assay Science). Statistical analysis was performed as one-way ANOVA in GraphPad Prism. ****=p<0.001. […] Luciferase levels were measured using a luciferase assay reagent (Promega). […] Treatment was same as in FIG. 10A. Note: tubulin blot is the same as in FIG. 10A since samples were run on the same nitrocellulose membrane for western blot analysis. […] Treatment was same as in FIG. 10A. […] Proteins were detected by Western blot using specific antibodies.
# NCI-H1373 cells [5] = experiment: Cell Titer-Glo viability assay in NCI-H1373 cells; type: cell-based; details: 6 d treatment, increasing concentrations
# Excerpt: Curves were fit using three parameter a nonlinear regression in GraphPad Prism.
# NCI-H1373 cells [6] = experiment: Cell Titer-Glo viability, NCI-H1373; type: cell-based; details: Homo sapiens, NCI-H1373, 144 h; 6 days, CellTiter-Glo
# Method: NCI-H1373 cells were seeded in a white 96-well plate (Corning) at a density of 1,000 cells per well. After 24 hours, cells were treated with PARP7 inhibitors and incubated at 37° C. for 6 days. Cell viability was assessed using CellTiter-Glo (CTG) 2.0 (Promega). After addition of the CTG reagent (following manufacturer protocol), the plate was incubated on an orbital shaker for 15 min (protected from light) at room temperature. Chemiluminescence was measured on a Spectra Max i3 (Molecular Devices), normalized to DMSO-treated wells, and IC50 values were calculated by non-linear regression (three-parameter fit) analysis using Prism 9 (GraphPad).
# STING = STING degradation and signaling Western blot in CT-26 cells; type: cell-based
# Method: as §1
# [7] = test system: STAT1 and phosphor-Tyr701-STAT1 (pSTAT1); experiment: STAT1 and pSTAT1 Western blot in CT-26 cells; type: cell-based
# Method: as §1
# IFN-β = IFN-β ELISA in CT-26 cells; type: cell-based; details: 300 nM, 16 h, with or without STING inhibitor H-151 (500 nM)
# Method: (§2) FIG. 4B provides of Western blots in FIG. 4A. Quantification was performed using BioRad ImageLab software. Curves were fit using four parameter nonlinear regression in GraphPad Prism. STAT1 and pSTAT1 levels were normalized to tubulin. Data was from 3 biological replicates. […] Treatment was as in FIG. 4A. Note: tubulin blot was the same as in FIG. 4A since samples were run on the same nitrocellulose membrane for western blot analysis. SE=short exposure; LE=long exposure. […] Treatment was as in FIG. 4A. Note: tubulin blot is the same as in FIG. 4A since samples were run on the same nitrocellulose membrane for western blot analysis. […] Quantification was performed using BioRad ImageLab software. Curves fitting was done using a four parameter nonlinear regression in GraphPad Prism. PARP7 levels were normalized to tubulin. Data was from 3 biological replicates. […] IFN-0 levels were determined by ELISA (PBL Assay Science). Statistical analysis was performed as one-way ANOVA in GraphPad Prism. ****=p<0.001. […] Luciferase levels were measured using a luciferase assay reagent (Promega).
# [8] = test system: interferon-sensitive response element (ISRE)-firefly luciferase; experiment: ISRE luciferase assay, ISRE-Luc CT-26 cells; type: cell-based, mouse; details: 16 h, saturating doses
# Method: 10,000 ISRE-Luc CT-26 or WT CT-26 cells were seeded into wells of a white 96-well plate and grown overnight. Compounds were serial diluted at 1000× concentration in DMSO. For dosing, compound dose response curves were dilute 1:100 in culture media, then added at 1:10 dilution to cell culture. Final DMSO concentration was 0.1%. Cells were incubated in treatment for 18 hours. Following treatment, the plates were developed using ONE-Glo Luciferase Assay system (Promega) per manufacturer directions. The luminescence signal was read on a Spectra Max i3 (Molecular Devices) plate reader with a 2 second integration time. WT CT-26 signal was background subtracted and curves were fit using a four-parameter […] regression in GraphPad Prism 9.
# [9] = test system: STAT1 and STAT1 Tyr701 phosphorylation (pSTAT1); experiment: STAT1 and pSTAT1 (Tyr701) western blot in CT-26 cells; type: cell-based, mouse; details: increasing concentrations, 16 h
# [10] = test system: type I interferon reporter; experiment: IRSE luciferase reporter in CT-26 cells; type: cell-based; details: CT-26 cells stably expressing IRSE luciferase reporter, 16 h
# Method: as §2
# PARP7 [11] = target: T1, PARP7; experiment: Cell fractionation and PARP7 Western blot in CT-26 cells; type: cell-based; details: 300 nM, 18 h, fractionation
# [12] = increasing concentrations, 16 h
smiles,measurement,setting,value
Cc1ccc2c(=O)c3cccc(CC(=O)O)c3oc2c1C [DMXAA],STING levels,"STING, pTBK1, pIRF3",decreased substantially STING levels
same,pTBK1 and pIRF3,"STING, pTBK1, pIRF3",induced robustly both pTBK1 and pIRF3
"CC#Cc1ccc2c(=O)[nH]nc(CNC(C)CC(=O)N3CCN(c4ncc(C(F)(F)F)cn4)CC3)c2c1 (stereo not drawn) [Example 191, 4-(((4-Oxo-4-(4-(5-(trifluoromethyl)pyrimidin-2-yl)piperazin-1-yl)butan-2-yl)amino)methyl)-6-(prop-1-yn-1-yl)phthalazin-1(2H)-one]",GI50,[1],1000 to 5000 nM
same,GI50,[2],> 5000 nM
same,IC50,PARP2,> 2000 nM
same,IC50,PARP1,> 2000 nM
same,GI50,[3],100 to 1000 nM
same,IC50,His-GST-PARP7,< 50 nM
CCc1ccc(NC(=O)Nc2c[nH]c3ccccc23)cc1 [Example H-151],PARP7 inhibitor-induced induction of IFN-β,secreted IFN-β,completely blocked
C[C@@H](COCCC(=O)N1CCN(c2ncc(C(F)(F)F)cn2)CC1)Nc1cn[nH]c(=O)c1C(F)(F)F [RBN-2397],endogenous PARP7 levels,endogenous PARP7,increased PARP7 levels
same,increase in PARP7 protein abundance compared to Example 10,endogenous PARP7; saturating doses,2 fold
same,nuclear PARP7 protein levels,HiBiT-PARP7,increases nuclear PARP7 protein levels
same,time to detectable increase in nuclear PARP7 levels,GFP-PARP7,≤ 30 min
same,"PARP7 levels, time dependence",PARP7 [4]; 300 nM,increase PARP7 levels in a time-dependent manner
same,"PARP7 levels, dose dependence",PARP7 [4]; [12],increase PARP7 levels in a dose-dependent manner
same,cell viability,NCI-H1373 cells [5],decreases viability
same,EC50,NCI-H1373 cells [6],17.8 nM
same,"STING and pIRF3 levels, time dependence",STING; 300 nM,decrease STING levels and increase pIRF3 levels in a time-dependent manner
same,STING degradation and signaling,STING; [12],"induced STING degradation and signaling, but not to the same extent as a STING agonist"
same,"STAT1 and pSTAT1 levels, time dependence",[7]; 300 nM,increase STAT1 and pSTAT1 in a time-dependent manner
same,"STAT1 and pSTAT1 levels, dose dependence",[7]; [12],increase STAT1 and phosphor-Tyr701-STAT1 (pSTAT1) in a dose-dependent manner
same,levels of secreted IFN-β,secreted IFN-β; saturating doses,increased significantly the levels of secreted IFN-β to a greater extent than Example 10
same,IFN-β levels,IFN-β,increase IFN-β levels in a STING-dependent manner
same,magnitude of ISRE-Luc response compared to Example 10,[8],~2 fold
same,STAT1 and pSTAT1 levels,[9],dose-dependently increased STAT1 and pSTAT1 levels
same,type I interferon reporter levels,[10],increase type I interferon reporter levels in a dose dependent manner
same,subcellular localisation of PARP7,PARP7 [11],PARP7 levels were only detected in nucleus
